{"source": "patent US11674182B2", "about": "“Biomarker for HER2-positive cancer and anti-HER2 therapy and applications thereof” (INDUSTRY-UNIVERSITY COOPERATION FOUNDATION HANYANG …, priority 2017, dated 2023)", "key": {"[1]": {"molecular_target": "T1, ADAM10 (Homo sapiens, UniProt O14672)", "T1 sequence (O14672 214-748)": "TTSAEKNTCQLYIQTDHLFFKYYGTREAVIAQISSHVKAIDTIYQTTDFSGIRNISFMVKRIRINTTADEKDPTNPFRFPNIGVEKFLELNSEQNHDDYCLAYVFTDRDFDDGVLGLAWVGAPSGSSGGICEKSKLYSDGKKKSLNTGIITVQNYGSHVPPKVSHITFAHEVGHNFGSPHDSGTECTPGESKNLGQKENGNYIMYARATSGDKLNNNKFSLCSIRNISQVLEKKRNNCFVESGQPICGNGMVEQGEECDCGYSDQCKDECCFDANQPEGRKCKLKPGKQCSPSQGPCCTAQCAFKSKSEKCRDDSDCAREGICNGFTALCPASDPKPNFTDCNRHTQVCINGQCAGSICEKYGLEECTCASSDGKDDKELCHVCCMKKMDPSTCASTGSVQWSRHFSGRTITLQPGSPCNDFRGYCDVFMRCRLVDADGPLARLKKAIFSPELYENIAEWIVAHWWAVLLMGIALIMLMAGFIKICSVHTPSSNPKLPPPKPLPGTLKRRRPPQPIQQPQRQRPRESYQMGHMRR", "settings": "cited from earlier work"}, "[2]": {"system": "ADAM10 and ADAM17", "settings": "HER2+ metastatic breast cancer patients expressing p95-HER2; trial reported to have failed; cited from earlier work"}, "[3]": {"system": "BT474 cells", "assay": "Cell viability test (SRB) and colony formation assay in BT474 cells", "format": "cell-based, human", "settings": "MEL-18-depleted BT474 cells; 1 μM GW280264 with trastuzumab, 5 days", "description": "An in vitro toxicity test analysis kit (Sulforhodamine B based, TOX6) was purchased from Sigma-Aldrich (St. Louis, Mo., USA), and used according to the manufacturer's protocols. […] After five days, the cells were fixed by layering a TCA solution in the medium, and incubated at 4° C. for 1 hour. The fixed cells were washed with water several times, and stained with a 0.4% sulforhodamine B solution for 30 minutes. Subsequently, the stained cells were washed with a 1% acetic acid solution until remaining salts were no longer observed, and the incorporated dye was dissolved in a 10 mM Tris solution while gently stirring. The prepared plate was detected using a microplate reader at 490 nm.\nAfter 2 weeks, the cells were fixed with a 4% formaldehyde solution for 5 minutes, washed with PBS, and stained with 0.02% crystal violet (C0775, Sigma-Aldrich) for 1 to 2 hours at room temperature and then washed again. The prepared plates were dried thoroughly, and the experiment was carried out."}, "[4]": {"system": "ErbB-PI3K-AKT signaling", "assay": "Immunoblotting / ELISA of ErbB signaling and ErbB ligand secretion in BT474 cells", "format": "cell-based, human", "settings": "MEL-18-knockdown BT474 cells; 1 μM GW280264, 24 hours", "description": "Cells were lysed in RIPA buffer, and the lysates were subjected to immunoblotting and immunoprecipitation as described in [M. H. Cho et al, Nat Commun 6, 7821(2015)] (60). For immunoblotting, the cell lysates were separated by 6% to 15% SDS-polyacrylamide gel electrophoresis (PAGE) and transferred to nitrocellulose membranes. After blocking the membranes with 5% skin milk, the membranes were incubated with primary antibodies overnight at 4° C., and then reacted with horseradish peroxidase (HRP)-conjugated secondary antibodies for 1 hour at room temperature. Bands were visualized using an ECL detection system (GE Healthcare, Chalfont St. Giles, UK).\nThe levels of the HER ligands HB-EGF and heregulinl (heregulinl, NRG1-beta1, NRG1) were measured in cell culture supernatants using ELISA (BosterBio and R&D Systems) according to the manufacturer's protocols.\nIn the case of the R&D Systems kit, an ELISA plate was coated overnight with captured antibodies and blocked with 3% BSA for 1 hour. […]\nIn the case of the BosterBio ELISA kit, the antibody-coated plate was directly filled with samples and standards, and incubated for 90 minutes. […] After this step, the plates for both kits were filled with a substrate solution for 20 minutes, the reaction was stopped using a stop solution for 20 minutes, and the absorbance was measured using a microplate reader at a wavelength of 450 nm. […]"}}}
{"smiles": "CNC(=O)[C@@H](NC(=O)[C@H](CCCc1ccccc1)[C@H](C)N(O)C=O)C(C)(C)C", "note": "[GI254023, (2R)—N-[(1S)-2,2-dimethyl-1-[(methylamino)carbonyl]-propyl]-2-[(1S)-1-[formyl(hydroxy)amino]ethyl]-5-phenylpentanamide]", "values": [{"measurement": "selectivity to ADAM10 with respect to ADAM17", "setting": "[1]", "result": "about 100 fold"}]}
{"smiles": "COC(=O)N1CC2(CC2)C[C@H](C(=O)NO)[C@H]1C(=O)N1CCN(c2ccccc2)CC1", "note": "[INCB7839, (6S,7S)-7-[(hydroxyamino)carbonyl]-6-[(4-phenyl-1-piperazinyl)carbonyl]-5-azaspiro[2.5]octane-5-carboxylic acid methyl ester]", "values": [{"measurement": "clinical therapeutic effect in combination with Herceptin", "setting": "[2]", "result": "improves a clinical therapeutic effect of Herceptin"}]}
{"smiles": "CCC[C@@H]([C@@H](CC(C)C)C(=O)N[C@@H](CCCCNC(=O)OCc1ccccc1)C(=O)Nc1nccs1)N(O)C=O", "note": "[GW280264, benzyl N-[(5S)-5-[[(2R,3S)-3-(Formylhydroxyamino)-2-(2-methylpropyl)-1-oxohexyl]amino]-6-oxo-6-(2-thiazolylamino)hexyl]-carbamate]", "values": [{"measurement": "anti-proliferative effect of trastuzumab on co-treatment with GW280264", "setting": "[3]", "result": "resistance to trastuzumab is improved"}, {"measurement": "activation of ErbB-PI3K-AKT signaling and secretion of ErbB ligands", "setting": "[4]", "result": "reversing the activation of ErbB-PI3K-AKT signaling"}]}
